Patent US5672715A, “Herbicidal substituted 3-aryl-pyrazoles” (Monsanto Company, priority 1995, dated 1997)
Several values for one entry are separate records, joined by “and”; a condition that tells them apart may be missing. Identical values can stand only once.

What was measured:
Assay type in all cases: in vivo
Rape [1] = assay: pre-emergence herbicide test; details: pre-emergence, 0.25 lb/A; read-out: % plant inhibition
Method in brief: (§1)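 Greenhouse pan assay in which seeds lie under a treated topsoil cover; carrier was acetone or water. Inhibition (%) was recorded about 14 days post-treatment.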

Common Chickweed [2] = assay: pre-emergence herbicide test; details: pre-emergence, 0.25 lb/A; read-out: % plant inhibition
Method in brief: as §1

Blackgrass [3] = assay: pre-emergence herbicide test; details: Alopecurus myosuroides, pre-emergence, 0.25 lb/A; read-out: % plant inhibition
Method in brief: as §1

Birdseye Speedwell [4] = assay: pre-emergence herbicide test; details: pre-emergence, 0.25 lb/A; read-out: % plant inhibition
Method in brief: as §1

Bedstraw Catchweed [5] = assay: pre-emergence herbicide test; details: Galium aparine, pre-emergence, 0.25 lb/A; read-out: % plant inhibition
Method in brief: as §1

Cocklebur [6] = assay: pre-emergence herbicide test; details: 0.25 lb/A; for inhibition at 280.212 g/ha: Xanthium strumarium, pre-emergence, read-out: % plant inhibition
Method in brief: as §1

Green Foxtail [7] = assay: pre-emergence herbicide test; details: Setaria viridis, pre-emergence; 0.25 lb/A; read-out: % plant inhibition
Method in brief: as §1

Wheat [8] = assay: pre-emergence herbicide test; details: Triticum aestivum, pre-emergence, 0.25 lb/A; read-out: % plant inhibition
Method in brief: as §1

Corn [9] = assay: pre-emergence herbicide test; details: 0.25 lb/A; for inhibition at 280.212 g/ha: Zea mays, pre-emergence, read-out: % plant inhibition
Method in brief: as §1

Seedling Johnsongrass [10] = assay: pre-emergence herbicide test; details: Sorghum halepense, pre-emergence, 0.25 lb/A; read-out: % plant inhibition
Method in brief: as §1

Downy Brome [11] = assay: pre-emergence herbicide test; details: Bromus tectorum, pre-emergence, 0.25 lb/A; read-out: % plant inhibition
Method in brief: as §1

Wild Oats [12] = assay: pre-emergence herbicide test; details: Avena fatua, pre-emergence, 0.25 lb/A; read-out: % plant inhibition
Method in brief: as §1

Velvetleaf [13] = assay: pre-emergence herbicide test; details: 0.25 lb/A; for inhibition at 280.212 g/ha: Abutilon theophrasti, pre-emergence, read-out: % plant inhibition
Method in brief: as §1

Giant Foxtail [14] = assay: pre-emergence herbicide test; details: Setaria faberi, pre-emergence, 0.25 lb/A; read-out: % plant inhibition
Method in brief: as §1

Barnyardgrass [15] = assay: pre-emergence herbicide test; details: 0.25 lb/A; for inhibition at 280.212 g/ha: Echinochloa crus-galli, pre-emergence, read-out: % plant inhibition
Method in brief: as §1

Morning Glory [16] = assay: pre-emergence herbicide test; details: 0.25 lb/A; for inhibition at 280.212 g/ha: Ipomoea, pre-emergence, read-out: % plant inhibition
Method in brief: as §1

Soybean [17] = assay: pre-emergence herbicide test; details: Glycine max, pre-emergence, 0.25 lb/A; read-out: % plant inhibition
Method in brief: as §1

Rape [18] = assay: post-emergence herbicide test; details: post-emergence, 0.25 lb/A; read-out: % plant inhibition
Method in brief: (§2)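 Two- to three-week-old plants, greenhouse-grown in compacted topsoil, received candidate chemical by atomizer spray at 1870 L/Ha. Scored as percent inhibition.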

Common Chickweed [19] = assay: post-emergence herbicide test; details: post-emergence, 0.25 lb/A; read-out: % plant inhibition
Method in brief: as §2

Blackgrass [20] = assay: post-emergence herbicide test; details: Alopecurus myosuroides, post-emergence, 0.25 lb/A; read-out: % plant inhibition
Method in brief: as §2

Birdseye Speedwell [21] = assay: post-emergence herbicide test; details: post-emergence, 0.25 lb/A; read-out: % plant inhibition
Method in brief: as §2

Bedstraw Catchweed [22] = assay: post-emergence herbicide test; details: Galium aparine, post-emergence, 0.25 lb/A; read-out: % plant inhibition
Method in brief: as §2

Cocklebur [23] = assay: post-emergence herbicide test; details: Xanthium strumarium, post-emergence, 0.25 lb/A; read-out: % plant inhibition
Method in brief: as §2

Green Foxtail [24] = assay: post-emergence herbicide test; details: Setaria viridis, post-emergence, 0.25 lb/A; read-out: % plant inhibition
Method in brief: as §2

Wheat [25] = assay: post-emergence herbicide test; details: Triticum aestivum, post-emergence, 0.25 lb/A; read-out: % plant inhibition
Method in brief: as §2

Corn [26] = assay: post-emergence herbicide test; details: Zea mays, post-emergence, 0.25 lb/A; read-out: % plant inhibition
Method in brief: as §2

Seedling Johnsongrass [27] = assay: post-emergence herbicide test; details: Sorghum halepense, post-emergence, 0.25 lb/A; read-out: % plant inhibition
Method in brief: as §2

Downy Brome [28] = assay: post-emergence herbicide test; details: Bromus tectorum, post-emergence, 0.25 lb/A; read-out: % plant inhibition
Method in brief: as §2

Wild Oats [29] = assay: post-emergence herbicide test; details: Avena fatua, post-emergence, 0.25 lb/A; read-out: % plant inhibition
Method in brief: as §2

Velvetleaf [30] = assay: post-emergence herbicide test; details: Abutilon theophrasti, post-emergence, 0.25 lb/A; read-out: % plant inhibition
Method in brief: as §2

Giant Foxtail [31] = assay: post-emergence herbicide test; details: Setaria faberi, post-emergence, 0.25 lb/A; read-out: % plant inhibition
Method in brief: as §2

Barnyardgrass [32] = assay: post-emergence herbicide test; details: Echinochloa crus-galli, post-emergence, 0.25 lb/A; read-out: % plant inhibition
Method in brief: as §2

Morning Glory [33] = assay: post-emergence herbicide test; details: Ipomoea, post-emergence, 0.25 lb/A; read-out: % plant inhibition
Method in brief: as §2

Soybean [34] = assay: post-emergence herbicide test; details: Glycine max, post-emergence, 0.25 lb/A; read-out: % plant inhibition
Method in brief: as §2

| Structure (SMILES) | inhibition at 280.212 g/ha (Rape [1]) | inhibition at 280.212 g/ha (Common Chickweed [2]) | inhibition at 280.212 g/ha (Blackgrass [3]) | inhibition at 280.212 g/ha (Birdseye Speedwell [4]) | inhibition at 280.212 g/ha (Bedstraw Catchweed [5]) | inhibition at 280.212 g/ha (Cocklebur [6]) | inhibition at 280.212 g/ha (Green Foxtail [7]) | inhibition at 280.212 g/ha (Wheat [8]) | inhibition at 280.212 g/ha (Corn [9]) | inhibition at 280.212 g/ha (Seedling Johnsongrass [10]) | inhibition at 280.212 g/ha (Downy Brome [11]) | inhibition at 280.212 g/ha (Wild Oats [12]) | inhibition at 280.212 g/ha (Velvetleaf [13]) | inhibition at 280.212 g/ha (Giant Foxtail [14]) | inhibition at 280.212 g/ha (Barnyardgrass [15]) | inhibition at 280.212 g/ha (Soybean [17]) | inhibition at 280.212 g/ha (Rape [18]) | inhibition at 280.212 g/ha (Common Chickweed [19]) | inhibition at 280.212 g/ha (Blackgrass [20]) | inhibition at 280.212 g/ha (Birdseye Speedwell [21]) | other results |
| --- | --- | --- | --- | --- | --- | --- | --- | --- | --- | --- | --- | --- | --- | --- | --- | --- | --- | --- | --- | --- | --- |
| Cc1c(-c2ccc(Cl)cc2)nn(C)c1C(F)(F)F [Compound 7, 3-(4-chlorophenyl)-1,4-dimethyl-5-(trifluoromethyl)pyrazole] | 0% | 0% | 0% | 0% | 5% | 0% | 0% | 0% | 0% | 25% | 0% | 0% | 0% | 15% | 0% | 0% | 0% | 0% | 5% | 65% | inhibition at 280.212 g/ha (Morning Glory [16]): 0%; inhibition at 280.212 g/ha (Bedstraw Catchweed [22]): 35%; inhibition at 280.212 g/ha (Cocklebur [23]): 0%; inhibition at 280.212 g/ha (Green Foxtail [24]): 20%; inhibition at 280.212 g/ha (Wheat [25]): 5%; inhibition at 280.212 g/ha (Corn [26]): 0%; inhibition at 280.212 g/ha (Seedling Johnsongrass [27]): 0%; inhibition at 280.212 g/ha (Downy Brome [28]): 5%; inhibition at 280.212 g/ha (Wild Oats [29]): 5%; inhibition at 280.212 g/ha (Velvetleaf [30]): 5%; inhibition at 280.212 g/ha (Giant Foxtail [31]): 0%; inhibition at 280.212 g/ha (Barnyardgrass [32]): 0%; inhibition at 280.212 g/ha (Morning Glory [33]): 0%; inhibition at 280.212 g/ha (Soybean [34]): 5% |
| CC(C)OC(=O)c1cc(-c2nn(C)c(C(F)(F)F)c2C(F)F)c(F)cc1Cl [Compound 13, 2-Chloro-5-[4-(difluoromethyl)-1-methyl-5-(trifluoromethyl)-1H-pyrazol-3-yl]-4-fluorobenzoic acid, 1-methylethyl ester] | 65% | 90% | 98% | 90% | 100% | 70% | 100% | 3% | 80% | 100% | 100% | 95% | 100% | 100% | 100% | 30% | 100% | 98% | 95% | 100% | % plant inhibition (Cocklebur [6]): 75%; % plant inhibition (Corn [9]): 65%; % plant inhibition (Velvetleaf [13]): 98%; % plant inhibition (Barnyardgrass [15]): 99%; % plant inhibition (Morning Glory [16]): 50% and 93%; inhibition at 280.212 g/ha (Bedstraw Catchweed [22]): 100%; inhibition at 280.212 g/ha (Cocklebur [23]): 95%; inhibition at 280.212 g/ha (Green Foxtail [24]): 100%; inhibition at 280.212 g/ha (Wheat [25]): 20%; inhibition at 280.212 g/ha (Corn [26]): 55%; inhibition at 280.212 g/ha (Seedling Johnsongrass [27]): 100%; inhibition at 280.212 g/ha (Downy Brome [28]): 90%; inhibition at 280.212 g/ha (Wild Oats [29]): 90%; inhibition at 280.212 g/ha (Velvetleaf [30]): 100%; inhibition at 280.212 g/ha (Giant Foxtail [31]): 95%; inhibition at 280.212 g/ha (Barnyardgrass [32]): 90%; inhibition at 280.212 g/ha (Morning Glory [33]): 98%; inhibition at 280.212 g/ha (Soybean [34]): 90% |
| CC(C)OC(=O)c1cc(-c2nn(C)c(C(F)(F)F)c2CO)c(F)cc1Cl [Compound 14, 2-Chloro-4-fluoro-5-[4-(hydroxymethyl)-1-methyl-5-(trifluoromethyl)-1H-pyrazol-3-yl]benzoic acid, 1-methylethyl ester] | 5% | 98% | 65% | 98% | 20% | 15% | 100% | 2% | 15% | 97% | 30% | 50% | 60% | 98% | 90% | 8% | 75% | 45% | 60% | 90% | inhibition at 280.212 g/ha (Morning Glory [16]): 40%; inhibition at 280.212 g/ha (Bedstraw Catchweed [22]): 40%; inhibition at 280.212 g/ha (Cocklebur [23]): 95%; inhibition at 280.212 g/ha (Green Foxtail [24]): 65%; inhibition at 280.212 g/ha (Wheat [25]): 13%; inhibition at 280.212 g/ha (Corn [26]): 10%; inhibition at 280.212 g/ha (Seedling Johnsongrass [27]): 80%; inhibition at 280.212 g/ha (Downy Brome [28]): 60%; inhibition at 280.212 g/ha (Wild Oats [29]): 50%; inhibition at 280.212 g/ha (Velvetleaf [30]): 99%; inhibition at 280.212 g/ha (Giant Foxtail [31]): 25%; inhibition at 280.212 g/ha (Barnyardgrass [32]): 65%; inhibition at 280.212 g/ha (Morning Glory [33]): 85%; inhibition at 280.212 g/ha (Soybean [34]): 25% |
| CC(C)OC(=O)c1cc(-c2nn(C)c(C(F)(F)F)c2CF)c(F)cc1Cl [Compound 15, 2-Chloro-4-fluoro-5-[4-(fluoromethyl)-1-methyl-5-(trifluoromethyl)-1H-pyrazol-3-yl]benzoic acid, 1-methylethyl ester] | 60% | 100% | 100% | 100% | 98% | 90% | 100% | 0% | 93% | 100% | 100% | 90% | 97% | 100% | 100% | 20% | 100% | 100% | 100% | 100% | inhibition at 280.212 g/ha (Morning Glory [16]): 93%; inhibition at 280.212 g/ha (Bedstraw Catchweed [22]): 100%; inhibition at 280.212 g/ha (Cocklebur [23]): 99%; inhibition at 280.212 g/ha (Green Foxtail [24]): 100%; inhibition at 280.212 g/ha (Wheat [25]): 20%; inhibition at 280.212 g/ha (Corn [26]): 65%; inhibition at 280.212 g/ha (Seedling Johnsongrass [27]): 100%; inhibition at 280.212 g/ha (Downy Brome [28]): 100%; inhibition at 280.212 g/ha (Wild Oats [29]): 100%; inhibition at 280.212 g/ha (Velvetleaf [30]): 100%; inhibition at 280.212 g/ha (Giant Foxtail [31]): 90%; inhibition at 280.212 g/ha (Barnyardgrass [32]): 99%; inhibition at 280.212 g/ha (Morning Glory [33]): 98%; inhibition at 280.212 g/ha (Soybean [34]): 90% |
